Assay results published in ChEMBL document CHEMBL1150056, “5-Epi-isospongiaquinone, a new sesquiterpene/quinone antibiotic from an Australian marine sponge, Spongia hispida” (1992).

What was measured:
Staphylococcus aureus = test: Antibacterial activity against Staphylococcus aureus assessed per disk; type: functional
Micrococcus sp. = test: Antibacterial activity against Micrococcus sp. assessed per disk; type: functional

Row | MIC (Staphylococcus aureus) | MIC (Micrococcus sp.) | Structure (SMILES)
1 | 50 µg | 50 µg | CCOC1=CC(=O)C(O)=C(C[C@]2(C)[C@@H](C)CC[C@@]3(C)C(C)=CCC[C@@H]23)C1=O
2 | 20 µg | 20 µg | COC1=CC(=O)C(O)=C(C[C@]2(C)[C@@H](C)CC[C@@]3(C)C(C)=CCC[C@@H]23)C1=O
